Measurements published in patent US8207156B2, “Substituted pyrazoline compounds, their preparation and use as medicaments” (Laboratorios Del Dr. Esteve, S.A., priority 2005, dated 2012).
Where a name gives a salt, the structure may show the parent alone.

Tests used:
[1] = molecular target: T1, CB1 receptor (UniProt P20272); test: In-vitro determination of affinity to CB1/CB2-receptors (radioligand [3H]-CP55940 binding); conditions: for Inhibition [%], 10^−7 M: compound at 10^−7 M; for Inhibition [%], 10^−8 M: compound at 10^−8 M
T1 construct: other: compound at 10^−7 M; radioligand [3H]-CP55940; other: compound at 10^−8 M
Description: (§1) The in-vitro determination of the affinity of the inventive substituted pyrazoline compounds to CB1/CB2-Rezeptors is carried out as described in the publication of Ruth A. Ross, Heather C. Brockie et al., “Agonist-inverse agonist characterization at CB1 and CB2 cannabinoid receptors of L-759633, L759656 and AM630”, British Journal of Pharmacology, 126, 665-672, (1999), whereby the transfected human CB1 and CB2 receptors of Receptor Biology, Inc. are used. The radioligand used for both receptors is [^3H]-CP55940. The respective parts of the description is hereby incorporated by reference and forms part of the present disclosure.
(§2) Binding affinity to CB1 receptor was evaluated according to a modification of the method described by Govaerts et al., Eur J Pharmac Sci 23, 233-243 (2004). The respective parts of the description is hereby incorporated by reference and forms part of the present disclosure.
(§3) Briefly, cerebellum from male wistar rats (250-300 g) were carefully dissected on ice and homogenates were prepared with Potter-Helveheim in a cold 50 mM Tris-HCl solution containing 5 mM MgCl2, 1 mM EDTA and 0.25 M sucrose, pH 7.4. The suspension was centrifuged at 1,000×g for 5 minutes. The supernatants were collected and centrifuged 50,000×g for 15 minutes. The resulting pellets were then resuspended in Tris-HCl buffer without sucrose, homogenized and incubated for 15 min at 37° C. in an orbital shaker bath and centrifuged again at 50,000×g for 15 min. Pellets were weighted, resuspended in Tris-HCl buffer without sucrose, homogenized with Ultraturrax at 13,500 rpm for 3×5 seconds and alicuoted in 0.9 ml volumes in Eppendorf tubes. Alicuotes were centrifuged at 20,800×g for 5 minutes, supernatants discarded and pellets were frozen at −80° C. until use. Total protein concentration was determined using the Bio-Rad Lowry method based kit. Competitive binding experiments were performed in presence of 1 nM [^3H]-CP 55,940 in siliconized glass tubes containing 100 μg protein/tube resuspended in 1 ml final volume of 50 mM Tris-HCl, 5 mM MgCl2, 1 mM EDTA, 0.5% (w/v) bovine serum albumin, pH 7.4. Compounds were present at various concentrations and the non specific binding was determined in the presence of 10 μM HU-210. After 1 hour incubation at 30° C., the suspension was rapidly filtered through 0.5% PEI pre-treated GF/B fiber filters on a 96-well harvester and washed 3 times with 3 ml ice-cold binding buffer without bovine serum albumin. Radioactivity on filters was measured with Wallac Winspectral 1414 counter by liquid scintillation in 6 ml Ecoscint H (National Diagnostics, U.K.). Assays were made in triplicates.
(§4) Binding data were analyzed by non-linear regression with the software GraphPad Prism Version 3.03.

[2] = molecular target: T2, CB1 receptor; test: as above; conditions: binding data per pharmacological methods part I, table does not say whether human transfected receptor or rat cerebellum
T2 construct: IC50 [nM]; radioligand [3H]-CP55940
Description: as §1, §2, §3, §4

[3] = molecular target: recombinant human cannabinoid 1 receptor (CB1) (Homo sapiens, UniProt P21554); test: In vitro determination of antagonism to CB1-receptor ([35S]GTPγS binding assay, CHO cell membranes); type: biochemical; conditions: compound at 1 μM against agonist WIN 55,212-2 (3 nM to 3 μM); effect of Rimonabant (1 μM) defined as 100%
Description: Chinese hamster ovary (CHO) cells stably expressing recombinant human cannabinoid 1 receptor (CB1) were cultured in nutrient mixture Ham's F 12 supplemented with 10% heat-inactivated fetal bovine serum, 2 mM L-glutamine, 50 U/ml penicillin, 50 U/ml streptomycin and 0.5 mg/ml geneticin. In order to obtain cells, culture flasks were washed twice with phosphate buffered saline and scraped. Then, cells were collected by centrifugation (200×g, 10 min) and stored dry at −80° C. Cells were homogenized in ice-cold 20 mM HEPES, 10 mM EDTA (pH 7.5) and centrifuged at 40,000×g for 15 min at 4° C. The membrane pellet was resuspended in 20 mM HEPES, 0.1 mM EDTA (pH 7.5) and centrifuged for 15 min at 4° C. The final membrane pellet was resuspended in 20 mM HEPES, 0.1 mM EDTA (pH 7.5), and divided in aliquots and stored at −80° C. until use.
The reaction was performed in 96-well plates. Membranes (15 μg protein/well) were incubated for 60 min at 30° C. in buffer (50 mM HEPES, 100 mM KCl, 5 mM MgCl2,1 mM EDTA, 0.1% wt/vol bovine serum albumin, 5 μM GDP, saponin (10 μg/ml), 0.5 nM [^35S]GTPγS, pH 7.4) with compound at a final concentration of 1 μM in either the absence or presence of agonist WIN 55, 212-2 between 3 nM and 3 μM. The incubation was terminated by rapid filtration through Millipore Multiscreen glass fiber FB, and rinsed two-times with ice-cold assay buffer. Filter plates were dried and 30 μl of scintillation liquid was added. Radioactivity was determined using a Wallac Microbeta Trilux. Each experiment was performed at least in duplicate. A WIN 55, 212-2 dose-response experiment either alone or in the presence of Rimonabant (1 μM) was systematically performed.
The average of basal [^35S]GTPγS binding was subtracted from all binding data. In order to compare the antagonism results from one screening campaign to another one, the difference between the maximal agonist effect of WIN 55, 212-2 alone, and the maximal antagonism effect due to WIN 55, 212-2 plus Rimonabant (1 μM) was defined as 100%.

Chain of recombinant human cannabinoid 1 receptor (CB1) (P21554 whole entry): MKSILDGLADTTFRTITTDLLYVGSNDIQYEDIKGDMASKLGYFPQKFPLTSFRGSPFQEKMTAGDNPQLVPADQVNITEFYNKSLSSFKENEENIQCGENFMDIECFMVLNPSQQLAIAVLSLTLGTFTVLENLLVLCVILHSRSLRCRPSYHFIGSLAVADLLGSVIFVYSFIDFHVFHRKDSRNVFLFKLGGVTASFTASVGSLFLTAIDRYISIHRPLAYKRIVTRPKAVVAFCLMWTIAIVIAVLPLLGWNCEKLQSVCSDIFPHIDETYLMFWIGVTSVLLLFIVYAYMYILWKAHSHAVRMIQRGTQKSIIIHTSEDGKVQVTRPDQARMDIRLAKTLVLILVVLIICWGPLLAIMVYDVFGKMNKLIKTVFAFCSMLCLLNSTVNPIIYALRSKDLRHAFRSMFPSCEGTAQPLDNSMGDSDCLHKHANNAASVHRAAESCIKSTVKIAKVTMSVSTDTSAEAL

Compound | Inhibition [%], 10^−7 M [1] [%] | Inhibition [%], 10^−8 M [1] [%] | IC50 [2] [nM] | IC50 ([2]; hydrochloride) [nM] | Antagonism [%] [3] [%]
O=C(NN1CCCCC1)C1=NN(c2ccc(Cl)cc2Cl)C(c2ccc(Br)cc2)C1 (stereo not drawn) [Example 60A, 5-(4-Bromo-phenyl)-1-(2,4-dichloro-phenyl)-4,5-dihydro-1H-pyrazole-3-carboxylic acid piperidin-1-ylamide] | 65.8 | 33.3 | 44 | – | –
Cl.O=C(NN1CC2CCCC2C1)C1=NN(c2ccc(Cl)cc2Cl)C(c2ccc(F)cc2)C1 (stereo not drawn) [Example 91A, 1-(2,4-Dichloro-phenyl)-5-(4-fluoro-phenyl)-4,5-dihydro-1H-pyrazole-3-carboxylic acid (hexahydro-cyclopenta[c]pyrrol-2-yl)-amide] | 75.3 | 34.9 | 84 | – | –
O=C(NC1CCCCC1)C1=NN(c2ccc(Cl)cc2Cl)C(c2ccc(Cl)cc2)C1 (stereo not drawn) [Example 41, 5-(4-Chloro-phenyl)-1-(2,4-dichloro-phenyl)-4,5-dihydro-1H-pyrazole-3-carboxylic acid cyclohexylamide] | 3.4 | −5.2 | – | – | 69
O=C(NN1CCOCC1)C1=NN(c2ccc(Cl)cc2Cl)C(c2ccc(Cl)cc2)C1 (stereo not drawn) [Example 8, 5-(4-Chloro-phenyl)-1-(2,4-dichloro-phenyl)-4,5-dihydro-1H-pyrazole-3-carboxylic acid morpholin-4-ylamide] | 21.9 | −8.2 | – | – | 54
O=C(NN1CCCCCC1)C1=NN(c2ccc(Cl)cc2Cl)C(c2ccc(F)cc2)C1 (stereo not drawn) [Example 96, 1-(2,4-Dichloro-phenyl)-5-(4-fluoro-phenyl)-4,5-dihydro-1H-pyrazole-3-carboxylic acid azepan-1-ylamide] | 74.8 | 43.3 | 56 | – | –
O=C(NCC1CCCCCC1)C1=NN(c2ccc(Cl)cc2Cl)C(c2ccc(Cl)cc2)C1 (stereo not drawn) [Example 191, 5-(4-Chloro-phenyl)-1-(2,4-dichloro-phenyl)-4,5-dihydro-1H-pyrazole-3-carboxylic acid cycloheptylmethyl-amide] | 67.4 | 30.2 | – | – | 82
COC(=O)C1=NN(c2ccc(Cl)cc2Cl)C(c2ccc(Cl)cc2)C1 (stereo not drawn) [Example 115, 5-(4-Chloro-phenyl)-1-(2,4-dichloro-phenyl)-4,5-dihydro-1H-pyrazole-3-carboxylic acid methyl ester] | −4.3 | 1.9 | – | – | 23
O=C(NN1CCCCC1)C1=NN(c2ccc(Cl)cc2Cl)C(c2ccc(Br)cc2)C1 (stereo not drawn) [Example 60, 5-(4-Bromo-phenyl)-1-(2,4-dichloro-phenyl)-4,5-dihydro-1H-pyrazole-3-carboxylic acid piperidin-1-ylamide hydrochloride] | – | – | – | 27 | –
CCCCN(NC(=O)C1=NN(c2ccc(Cl)cc2Cl)C(c2ccc(Cl)cc2)C1)c1ccccc1 (stereo not drawn) [Example 29, 5-(4-Chloro-phenyl)-1-(2,4-dichloro-phenyl)-4,5-dihydro-1H-pyrazole-3-carboxylic acid N′-butyl-N′-phenyl-hydrazide] | – | – | > 1000 | – | –
Cl.O=C(NN1CCCC1)C1=NN(c2ccc(Cl)cc2Cl)C(c2ccc(Cl)cc2)C1 (stereo not drawn) [Example 194, 5-(4-Chloro-phenyl)-1-(2,4-dichloro-phenyl)-4,5-dihydro-1H-pyrazole-3-carboxylic acid pyrrolidin-1-ylamide hydrochloride] | 41.7 | 22.9 | – | – | 82

Now from value to compound:

Inhibition [%], 10^−7 M [1] [%] | Inhibition [%], 10^−8 M [1] [%] | IC50 [2] [nM] | IC50 ([2]; hydrochloride) [nM] | Antagonism [%] [3] [%] | Compound
– | – | > 1000 | – | – | CC(C)(C)C1CCC(NC(=O)C2=NN(c3ccc(Cl)cc3Cl)C(c3ccc(Cl)cc3)C2)CC1 (stereo not drawn) [Example 31, 5-(4-Chloro-phenyl)-1-(2,4-dichloro-phenyl)-4,5-dihydro-1H-pyrazole-3-carboxylic acid (4-tert-butyl-cyclohexyl)-amide]
50.6 | 33.7 | – | 24 | – | Cl.O=C(NN1CCc2ccccc21)C1=NN(c2ccc(Cl)cc2Cl)[C@@H](c2ccc(Cl)cc2)C1 [Example 181, (R)-5-(4-Chloro-phenyl)-1-(2,4-dichloro-phenyl)-4,5-dihydro-1H-pyrazole-3-carboxylic acid (2,3-dihydro-indol-1-yl)-amide hydrochloride]
58 | 41.2 | 119 | – | – | O=C(N[C@@H]1CCCC[C@H]1OCc1ccccc1)C1=NN(c2ccc(Cl)cc2Cl)C(c2ccc(Cl)cc2)C1 (stereo partly drawn) [Example 178, N-((1R,2R)-2-(benzyloxy)cyclohexyl)-5-(4-chlorophenyl)-1-(2,4-dichlorophenyl)-4,5-dihydro-1H-pyrazole-3-carboxamide]
79.3 | 41.4 | 18 | – | – | COc1ccc(C2CC(C(=O)NN3CCCCCC3)=NN2c2ccc(Cl)cc2Cl)cc1 (stereo not drawn) [Example 114A, 1-(2,4-Dichloro-phenyl)-5-(4-methoxy-phenyl)-4,5-dihydro-1H-pyrazole-3-carboxylic acid azepan-1-ylamide]
– | – | 630 | – | – | O=C(NN1CCCC1)C1=NN(c2ccc(Cl)cc2Cl)C(c2ccc(Cl)cc2)C1 (stereo not drawn) [Example 11, 5-(4-Chloro-phenyl)-1-(2,4-dichloro-phenyl)-4,5-dihydro-1H-pyrazole-3-carboxylic acid pyrrolidin-1-ylamide]
– | – | 355 | – | – | CCCNC(=O)C1=NN(c2ccc(Cl)cc2Cl)C(c2ccc(Cl)cc2)C1 (stereo not drawn) [Example 69, 5-(4-Chloro-phenyl)-1-(2,4-dichloro-phenyl)-4,5-dihydro-1H-pyrazole-3-carboxylic acid propylamide]
7.1 | −4.1 | – | – | 30 | CCOC(=O)C1=NN(c2ccc(Cl)cc2Cl)C(c2ccc(Cl)cc2)C1 (stereo not drawn) [Example 120, 5-(4-Chloro-phenyl)-1-(2,4-dichloro-phenyl)-4,5-dihydro-1H-pyrazole-3-carboxylic acid ethyl ester]
– | – | 251 | – | – | O=C(C1=NN(c2ccc(Cl)cc2Cl)C(c2ccc(Cl)cc2)C1)N1CCN(Cc2ccccc2)CC1 (stereo not drawn) [Example 52, (4-Benzyl-piperazin-1-yl)-[5-(4-chloro-phenyl)-1-(2,4-dichloro-phenyl)-4,5-dihydro-1H-pyrazol-3-yl]-methanone]
